Patent US11464770B2, “Anticancer pharmaceutical composition” (NATIONAL CANCER CENTER, priority 2016, dated 2022)

System: zebrafish
Test: Cardiotoxicity experiment using zebrafish (heart rate, lethality)
Format: in vivo
Details: 10 uM, n = 10

COc1ccc(CCN2CCC(Nc3nc4ccccc4n3Cc3ccc(F)cc3)CC2)cc1 [Astemizole, reference compound]
Changes (%) in heart rate (mean): 46.2%
Lethality: 0/10
